In patent US9890185B2, “Urea derivatives useful as kinase inhibitors” (Respivert Limited, priority 2013, dated 2018):

Legend:
[1] = biological target: p38 MAPKα isoform (MAPK14) (Homo sapiens (Human), UniProt Q16539); assay: p38 MAPKα enzyme inhibition (FRET, Z-LYTE, Method 2); format: biochemical
Summary of the method: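 Z-LYTE FRET: p38 MAPKα (80 ng/mL for Method 1, 200 ng/mL for Method 2, pre-dilution) preincubated 2 hr RT with compound (4–0.004 μg/mL solutions), activity read via MAPKAP-K2 phosphorylation after 1 hr RT and 1 hr protease development. Coumarin/fluorescein ratio gives phosphorylation; % inhibition versus uninhibited control, IC50 from concentration-response curve.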

[2] = tested on: HT29 cells; assay: IL-1β-induced IL-8 release in HT29 cells (assay d); format: cell-based; conditions: Homo sapiens, HT-29; IL-1β-stimulated HT29 cells; read-out: IC50 Values for Inhibition of Cytokine Release, HT29 cells IL-8
Protocol: HT29 cells, a human colon adenocarcinoma cell line, are plated in a 96 well plate (24 hrs) and pre-treated with compounds at the desired concentration for 2 hours before addition of 5 ng/mL of IL-1β (Abcam) for 24 hours. Supernatants are harvested for IL-8 quantification by Sandwich ELISA (Duo-set, R&D System). The IC50 is determined from the dose response curve.

[3] = tested on: PBMCs; assay: Cell mitosis assay in PBMCs (assay g); format: cell-based; conditions: Homo sapiens, PBMC, test compound 5 μg/mL
Summary of the method: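 Metaphase arrest with 0.1 μg/mL demecolcine during the final 2 hr of a 20 hr compound exposure, which follows 48 hr of 2% PHA stimulation of healthy-donor human PBMCs. Mitotic lymphocytes counted by flow cytometry (anti-phospho-histone 3 plus propidium iodide). Inhibition expressed relative to 0.5% DMSO.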

[4] = tested on: TNBS-induced colitis; assay: TNBS-induced colitis in mice (in vivo assay iv); parameters: species or system BDF1 mice; TNBS Ulcer grade / TNBS LP inflammation: scale not given here; conditions: SMEDDS vehicle; for Activity in in vivo model of colonic inflammation (histopathology analysis) / Inflammatory cell infiltrate in the reticular and laminar propria zone: TNBS colitis over 2 days; for Ulcer grade and epithelial repair compared to the vehicle control: dosed orally at 5 mg/kg, 2 days; for TNBS LP inflammation / TNBS Ulcer grade: mice, 5 mg/kg orally, conducted over 2 days, histopathology
Protocol: Non-fasted, 10-12 week old, male BDF1 mice are dosed by oral gavage twice daily with either vehicle (5 mL/kg), reference item (Budesonide 2.5 mg/kg) or test compound (1 or 5 mg/kg) one day before (Day −1) stimulation of the inflammatory response by treatment with 2,4,6-trinitrobenzenesulphonic acid (TNBS) (15 mg/mL in 50% ethanol/50% saline). On Day 0 of the study TNBS (200 μL) is administered intra-colonically via a plastic catheter with BID dosing of the vehicle, reference or test compound continuing for 2 or 4 days. During the study animals are weighed every day and stool observations are made and recorded as a score, based on stool consistency. At the time of sacrifice on Day 2 (or Day 4) the large intestine is removed and the length and weight recorded. Sections of the colon are taken for histopathology scoring to determine disease severity.

[5] = biological target: Lck (Homo sapiens (Human), UniProt P06239); assay: KINOMEscan enzyme binding assay (Lck); conditions: KINOMEscan technology; read-out: Dissociation Constant, Lck
Sequence of Lck (P06239 whole entry): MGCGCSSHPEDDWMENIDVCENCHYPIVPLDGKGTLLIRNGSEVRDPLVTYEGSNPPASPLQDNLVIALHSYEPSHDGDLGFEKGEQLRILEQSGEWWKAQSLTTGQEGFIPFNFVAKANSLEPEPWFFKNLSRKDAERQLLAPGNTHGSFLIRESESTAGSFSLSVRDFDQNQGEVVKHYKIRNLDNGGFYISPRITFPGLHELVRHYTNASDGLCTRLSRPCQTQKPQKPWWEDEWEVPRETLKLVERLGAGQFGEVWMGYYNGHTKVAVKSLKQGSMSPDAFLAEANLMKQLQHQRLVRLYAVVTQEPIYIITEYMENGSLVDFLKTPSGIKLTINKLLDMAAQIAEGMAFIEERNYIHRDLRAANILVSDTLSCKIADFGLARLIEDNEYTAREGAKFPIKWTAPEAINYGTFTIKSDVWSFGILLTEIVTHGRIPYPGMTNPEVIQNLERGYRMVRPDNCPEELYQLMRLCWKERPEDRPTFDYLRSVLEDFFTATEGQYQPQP
Protocol: (§1) Kinase enzyme binding activities of compounds disclosed herein may be determined using a proprietary assay which measures active site-directed competition binding to an immobilized ligand (Fabian, M. A. et al., Nature Biotechnol., 2005, 23:329-336). These assays may be conducted by DiscoverX (formerly Ambit; San Diego, Calif.). The percentage inhibition produced by incubation with a test compound may be calculated relative to the non-inhibited control.

[6] = biological target: p38 MAPK α (Homo sapiens (Human), UniProt Q16539); assay: KINOMEscan enzyme binding assay (p38 MAPKα); conditions: KINOMEscan technology; read-out: Dissociation Constant, p38 MAPK α
Sequence of p38 MAPK α (Q16539 whole entry): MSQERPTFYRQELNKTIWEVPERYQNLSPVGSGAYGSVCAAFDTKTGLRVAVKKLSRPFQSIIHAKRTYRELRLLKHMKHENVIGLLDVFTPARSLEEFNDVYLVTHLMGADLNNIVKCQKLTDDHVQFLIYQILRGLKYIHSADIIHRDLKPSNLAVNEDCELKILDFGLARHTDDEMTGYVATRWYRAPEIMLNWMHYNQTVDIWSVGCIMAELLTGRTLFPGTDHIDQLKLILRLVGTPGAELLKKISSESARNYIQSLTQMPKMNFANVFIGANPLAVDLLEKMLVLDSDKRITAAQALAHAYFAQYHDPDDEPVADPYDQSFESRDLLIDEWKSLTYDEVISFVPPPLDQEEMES
Protocol: as §1

Sequence of p38 MAPKα isoform (MAPK14) (Q16539 whole entry, canonical isoform): as the sequence (Q16539 whole entry) above

C#Cc1cc(Nc2cc(Oc3ccc(NC(=O)Nc4cc(C(C)(C)C)cc(P(C)(C)=O)c4OC)c4ccccc34)ccn2)cc(C(=O)NCCOCCOCCOC)c1 [Example 3, 3-((4-((4-(3-(5-(tert-Butyl)-3-(dimethylphosphoryl)-2-methoxyphenyl)ureido)naphthalen-1-yl)oxy)pyridin-2-yl)amino)-5-ethynyl-N-(2-(2-(2-methoxyethoxy)ethoxy)ethyl)benzamide]
IC50 [1]: 0.091 µM | IC50 [2]: 0.0145 µM | inhibition at 5 µg/mL [3]: 29.4%

COCCOCCOCCOc1cc(Nc2nccc(Oc3ccc(NC(=O)Nc4cc(C(C)(C)C)cc(OCP(C)(C)=O)c4OC)c4ccccc34)n2)cc(OC)c1 [Example 6, 1-(5-(tert-Butyl)-3-((dimethylphosphoryl)methoxy)-2-methoxyphenyl)-3-(4-((2-((3-methoxy-5-(2-(2-(2-methoxyethoxy)ethoxy)ethoxy)phenyl)amino)pyrimidin-4-yl)oxy)naphthalen-1-yl)urea]
IC50 [1]: 0.211 µM | IC50 [2]: 0.0053 µM | inhibition at 5 µg/mL [3]: 52.4%

COCCOCCOCCOc1cc(Nc2cc(Oc3ccc(NC(=O)Nc4cc(C(C)(C)C)cc(P(C)(C)=O)c4)c4ccccc34)ccn2)cc(OC)c1 [Example 10, 1-(3-(tert-Butyl)-5-(dimethylphosphoryl)phenyl)-3-(4-((2-((3-methoxy-5-(2-(2-(2-methoxy-ethoxy)ethoxy)ethoxy)phenyl)amino)pyridin-4-yl)oxy)naphthalen-1-yl)urea]
IC50 [1]: 0.045 µM | IC50 [2]: 0.0082 µM | inhibition at 5 µg/mL [3]: 39.3%

COc1c(NC(=O)Nc2ccc(Oc3ccnc(Nc4ccccc4)c3)c3ccccc23)cc(C(C)(C)C)cc1P(C)(C)=O [Example 11, 1-(5-(tert-Butyl)-3-(dimethylphosphoryl)-2-methoxyphenyl)-3-(4-((2-(phenylamino)pyridin-4-yl)oxy)naphthalen-1-yl)urea]
IC50 [1]: 0.141 µM | IC50 [2]: 0.0158 µM | inhibition at 5 µg/mL [3]: 61%

COc1c(CC(N)=O)cc(C(C)(C)C)cc1NC(=O)Nc1ccc(Oc2ccnc(Nc3ccccc3)c2)c2ccccc12 [Example 13, 2-(5-(tert-Butyl)-2-methoxy-3-(3-(4-((2-(phenylamino)pyridin-4-yl)oxy)naphthalen-1-yl)ureido)phenyl)acetamide]
IC50 [1]: 0.108 µM | IC50 [2]: 0.0182 µM | inhibition at 5 µg/mL [3]: 13.9% | Activity in in vivo model of colonic inflammation (histopathology analysis) [4]: significant activity | Inflammatory cell infiltrate in the reticular and laminar propria zone [4]: marked reductions | Ulcer grade and epithelial repair compared to the vehicle control [4]: marked improvements | TNBS LP inflammation [4]: 2.8 ± 0.5 | TNBS Ulcer grade [4]: 2.6 ± 0.7

COc1c(NC(=O)Nc2ccc(Oc3ccnc(Nc4ccccc4)c3)c3ccccc23)cc(C(C)(C)C)cc1C(=O)NCCN1CCOCC1 [Example 14, 5-(tert-Butyl)-2-methoxy-N-(2-morpholinoethyl)-3-(3-(4-((2-(phenylamino)pyridin-4-yl)oxy)naphthalen-1-yl)ureido)benzamide]
IC50 [1]: 0.392 µM | inhibition at 5 µg/mL [3]: 51.9% | Activity in in vivo model of colonic inflammation (histopathology analysis) [4]: significant activity | Inflammatory cell infiltrate in the reticular and laminar propria zone [4]: marked reductions | TNBS LP inflammation [4]: 3.6 ± 0.2 | TNBS Ulcer grade [4]: 3.5 ± 0.5

COCCOCCOCCOc1cc(Nc2cc(Oc3ccc(NC(=O)Nc4cc(C(C)(C)C)cc(C(=O)NCCN5CCOCC5)c4OC)c4ccccc34)ccn2)cc(OC)c1 [Example 16, 5-(tert-Butyl)-2-methoxy-3-(3-(4-((2-((3-methoxy-5-(2-(2-(2-methoxyethoxy)ethoxy)ethoxy)-phenyl)amino)pyridin-4-yl)oxy)naphthalen-1-yl)ureido)-N-(2-morpholinoethyl)benzamide]
IC50 [1]: 0.23 µM | IC50 [2]: 0.0015 µM | inhibition at 5 µg/mL [3]: 43.3%

COCCOCCOCCOc1cc(Nc2cc(Oc3ccc(NC(=O)Nc4cc(C(C)(C)C)cc([S+](C)[O-])c4OC)c4ccccc34)ccn2)cc(OC)c1 (stereo not shown) [Example 17, 1-(5-(tert-Butyl)-2-methoxy-3-(methylsulfinyl)phenyl)-3-(4-((2-((3-methoxy-5-(2-(2-(2-methoxyethoxy)ethoxy)ethoxy)phenyl)amino)pyridin-4-yl)oxy)naphthalen-1-yl)urea]
IC50 [1]: 0.068 µM | IC50 [2]: 0.002 µM | inhibition at 5 µg/mL [3]: 41.3%

COc1c(CS(C)(=O)=O)cc(C(C)(C)C)cc1NC(=O)Nc1ccc(Oc2ccnc(Nc3ccccc3)c2)c2ccccc12 [Example 19, 1-(5-(tert-Butyl)-2-methoxy-3-((methylsulfonyl)methyl)phenyl)-3-(4-((2-(phenylamino)pyridin-4-yl)oxy)naphthalen-1-yl)urea]
IC50 [1]: 0.208 µM | IC50 [2]: 0.0086 µM | inhibition at 5 µg/mL [3]: 36.9%

COc1cc(Nc2nccc(Oc3ccc(NC(=O)Nc4cc(C(C)(C)C)cc(OCP(C)(C)=O)c4OC)c4ccccc34)n2)cc(OC)c1 [Example 20, 1-(5-(tert-Butyl)-3-((dimethylphosphoryl)methoxy)-2-methoxyphenyl)-3-(4-((2-((3,5-dimethoxyphenyl)amino)pyrimidin-4-yl)oxy)naphthalen-1-yl)urea]
IC50 [1]: 0.368 µM | IC50 [2]: 0.0033 µM | inhibition at 5 µg/mL [3]: 55%

COc1cc(Nc2cc(Oc3ccc(NC(=O)Nc4cc(C(C)(C)C)cc(CC(N)=O)c4OC)c4ccccc34)ccn2)cc(OC)c1 [Example 30, 2-(5-(tert-Butyl)-3-(3-(4-((2-((3,5-dimethoxyphenyl)amino)pyridin-4-yl)oxy)naphthalen-1-yl)ureido)-2-methoxyphenyl)acetamide]
IC50 [1]: 0.132 µM | inhibition at 5 µg/mL [3]: 48.7% | Activity in in vivo model of colonic inflammation (histopathology analysis) [4]: significant activity | Inflammatory cell infiltrate in the reticular and laminar propria zone [4]: marked reductions | Ulcer grade and epithelial repair compared to the vehicle control [4]: marked improvements | TNBS LP inflammation [4]: 2.5 ± 0.4 | TNBS Ulcer grade [4]: 3.1 ± 0.4

COc1cc(Nc2cc(Oc3ccc(NC(=O)Nc4cc(C(C)(C)C)cc(P(C)(C)=O)c4OC)c4ccccc34)ccn2)cc(C(N)=O)c1 [Example 37, 3-((4-((4-(3-(5-(tert-butyl)-3-(dimethylphosphoryl)-2-methoxyphenyl)ureido)-naphthalen-1-yl)oxy)pyridin-2-yl)amino)-5-methoxybenzamide]
Kd [5]: 0.0012 µM | Kd [6]: 0.0045 µM | IC50 [1]: 0.062 µM | inhibition at 5 µg/mL [3]: 43.2%

COc1cc(Nc2cc(Oc3ccc(NC(=O)Nc4cc(C(C)(C)C)cc([S+](C)[O-])c4OC)c4ccccc34)ccn2)cc(OC)c1 (stereo not shown) [Example 40, 1-(5-(tert-Butyl)-2-methoxy-3-(methylsulfinyl)phenyl)-3-(4-((2-((3,5-dimethoxyphenyl)amino)pyridin-4-yl)oxy)naphthalen-1-yl)urea]
IC50 [1]: 0.302 µM | IC50 [2]: 0.003 µM | inhibition at 5 µg/mL [3]: 44.3%

COc1cccc(Nc2cc(Oc3ccc(NC(=O)Nc4cc(C(C)(C)C)cc([S+](C)[O-])c4OC)c4ccccc34)ccn2)c1 (stereo not shown) [Example 41, 1-(5-(tert-Butyl)-2-methoxy-3-(methylsulfinyl)phenyl)-3-(4-((2-((3-methoxyphenyl)amino)pyridin-4-yl)oxy)naphthalen-1-yl)urea]
IC50 [1]: 0.179 µM | IC50 [2]: 0.0022 µM | inhibition at 5 µg/mL [3]: 36%

COc1cccc(Nc2cc(Oc3ccc(NC(=O)Nc4cc(C(C)(C)C)cc(CNC(C)=O)c4OC)c4ccccc34)ccn2)c1 [Example 43, N-(5-(tert-Butyl)-2-methoxy-3-(3-(4-((2-((3-methoxyphenyl)amino)pyridin-4-yl)oxy)naphthalen-1-yl)ureido)benzyl)acetamide]
IC50 [1]: 0.129 µM | IC50 [2]: 0.0037 µM | inhibition at 5 µg/mL [3]: 62.1%

COc1cc(Nc2cc(Oc3ccc(NC(=O)Nc4cc(C(C)(C)C)cc(CNC(C)=O)c4OC)c4ccccc34)ccn2)cc(OC)c1 [Example 44, N-(5-(tert-Butyl)-3-(3-(4-((2-((3,5-dimethoxyphenyl)amino)pyridin-4-yl)oxy)naphthalen-1-yl)ureido)-2-methoxybenzyl)acetamide]
IC50 [1]: 0.175 µM | IC50 [2]: 0.0052 µM | inhibition at 5 µg/mL [3]: 42.8%
